What all share (format): cell-based
Data set [1] has as its system cells. As to the kind of experiment: Cell-penetrating / cell-loading ability (cell line not stated).
Data set [2] deals with PC12 cells. In words: Cell loading with O2 probes assessed by time-resolved fluorometry (TR-F plate reader). As for the experimental part: (§1) PC12 cells were seeded in standard 96-well plates pre-coated with collagen IV at 5×10^4 cells/well, and differentiated for 3-5 days in RPMI supplemented with 1% horse serum, P/S, and 100 ng/ml nerve growth factor. HepG2 cells were cultured in DMEM supplemented with 10% FBS, 2 mM L-glutamine and P/S, CHO—in Ex-Cell CHO DHFR^− medium supplemented with 4 mM L-glutamine and 1 μM methotrexate, HCT116—in McCoy medium supplemented with 10% FBS, 2 mM L-glutamine and P/S. The samples with cells were then loaded by incubating them with 1-10 μM of the O2 probe (prepared as described in Example 1) in regular medium at 37° C., 5% CO2, for the required period of time. After incubation the cells were washed 3 times with medium and 0.1 ml of fresh medium were added to each well. For comparison, some samples with cells were loaded with 1.2 μM PtCP-BSA probe (Luxcel Biosciences) in the presence of 6 μM Endo-Porter, as previously described (Zhdanov A V et al—J Biol Chem 283:5650-5661; 2008). The plate with loaded cells and control samples was then measured on a time-resolved fluorescence (TR-F) plate reader Victor 2 (PerkinElmer) set at 37° C., using 340 nm excitation and 642 nm emission filters. Each well was measured several times by taking TR-F intensity reading at delay time of 30 μs and gate time 100 μs. Measured TR-F signals were averaged and used to assess the efficiency of loading.
(§2) PC12 cells (seeded at 50,000 cells/well in standard 96 well plates and differentiated under standard conditions) were loaded with the cell-penetrating O2 probes in standard medium, using 1-10 uM probe concentrations, volume 100 ul/well and incubation time ranging from 20 min to 24 hrs. After probe loading wells were carefully washed three times with DME medium without phenol red and containing NGF. The same protocol was used for loading of adherent HCT116, HepG2 and SHSY5Y cells, using corresponding media.

Data set [3] has as its system HCT116 cells. In words: Cell loading with O2 probes in HCT116 cells. The procedure: as §1, with “loading. […]” for “loading.”
The nature of data set [4]: Cell viability assessment by total cellular ATP (CellTiter-Glo). Particulars: rat, differentiated PC12 cells. As for the experimental part:
Cell viability was assessed by measuring total cellular ATP in the loaded cells using CellTiter-Glo luminescent kit (Promega). PC12 cells were seeded into 96 well plates at concentration 50,000/well, differentiated for 3 days, loaded with peptide probe at a concentration 10 uM for 21 hrs, then washed. CellTiter-Glo reagent was then added to each well and chemiluminescence was measured on the Victor2 plate reader (Perkin-Elmer). The total luminescence signal of unloaded cells was taken as 100% viability. For the cells loaded with probes, no significant changes in ATP were observed and cell viability was retained at 93-95%.

In data set [5] the test system is PC12 cells. As to the kind of experiment: Respiratory response of probe-loaded cells to stimulation with FCCP (lifetime on TR-F reader). To be noted: 1 uM FCCP. As for the experimental part: as §2
Measurement of the cells loaded with probes was conducted on a TR-F plate reader Victor 2 (PerkinElmer, USA) at 37° C. as described in (O'Riordan T C et al—Anal Chem 79:9414-9419; 2007), using 340 nm excitation and 642 nm emission filters. Each well was measured repetitively every 1.8 minutes by taking two TR-F intensity readings at delay times of 30 μs (T1) and 70 μs (T2), using gate time 100 μs. Fluorescence intensity values at T1 (F1) and T2 (F2) were used for calculation of lifetime values using the following equation:
Lifetime [us]=(T2−T1)/ln(F1/F2),
For cell stimulation, the plate was monitored for 10-20 min to reach O2 and temperature equilibrium and obtain basal signals, then quickly withdrawn from the reader, compounds were added to the cells (10 μL of 10× stock solution) and monitoring was resumed. Metabolic effectors were added to the cells at the following final concentrations: 1 uM FCCP, 10 uM antimycin A, 0.5 uM Valinomycin, 5 mM EGTA, 100 mM KCl.

Data set [6] concerns cells. In words: Toxicity of the dye/probe on cells (cell line not stated).

Starred links: 1 amine or outer side, 2 acyl side, 3 side chain; linkers in the order of their positions; H or OH if unused. Non-standard residues stand in square brackets, D forms with d. Residues, ends and D or L forms follow the SMILES beside them. No end group written: not given here. *: point of attachment. X1 = CCOC(=O)CCC1=C(C)c2cc3[nH]c(cc4nc(cc5[nH]c(cc1n2)c(C)c5CCC(=O)OCC)C(C)=C4CCC(=O)NCCNC(=O)CCN1C(=O)CC(*)C1=O)c(C)c3CCC(=O)OCC; X2 = CC1=C(CCC(=O)O)c2cc3[nH]c(cc4nc(cc5[nH]c(cc1n2)c(CCC(=O)O)c5C)C(CCC(=O)*)=C4C)c(CCC(=O)O)c3C; X3 = S=C(Nc1ccc(CCN[*:1])cc1)[*:2]; PtCP‑NCS = not defined here

With “PEPP5: MTS-CGR9 peptide MGRTVVVLGGGISGLAAGCGRRRRRRRRR labelled with PTCPTE-MI derivative (PTCPTE-MI label)”, the “cell-penetrating / cell-loading ability (in words)” value in data set [1] is listed as “high cell loading efficiency”.

“PtCP-BN: PtCP-NCS derivative labelled on N-terminal amino group of BN (bactenecin) peptide GPRPLPFPRPG ({PtCP‑NCS}-GPRPLPFPRPG; reading uncertain)”: the “uptake / accumulation in PC12 cells (in words)” value (“uptake / accumulation” below) in data set [2] was “low uptake”. The “loading of HCT116 cells (in words)” value in data set [3] is “did not load well”.

As to “PtCP-BSA: conventional cell-impermeable O2 probe (Luxcel Biosciences), loaded with Endo-Porter transfection reagent [reference compound]”, the “average fluorescence signals (cell loading)” value in data set [2] (probe loaded by transfection (Endo-Porter)) is reported as 60,000 cps.

For orientation: viability means a read-out of living cells in per cent, often relative to untreated cells. For the compound `CCOC(=O)CCC1=C(C)c2cc3[nH]c(cc4nc(cc5[nH]c(cc1n2)c(C)c5CCC(=O)OCC)C(C)=C4CCC(=O)NCCNC(=O)CCN1C(=O)CC(SC[C@H](N)C(=O)N[C@@H](Cc2ccccc2)C(=O)N[C@@H](CCCNC(=N)N)C(=O)N[C@@H](CCCNC(=N)N)C(=O)N[C@@H](CCCNC(=N)N)C(=O)N[C@@H](CCCNC(=N)N)C(=O)N[C@@H](CCCNC(=N)N)C(=O)N[C@@H](CCCNC(=N)N)C(=O)N[C@@H](CCCNC(=N)N)C(=O)N[C@@H](CCCNC(=N)N)C(=O)N[C@@H](CCCNC(=N)N)C(=O)O)C1=O)c(C)c3CCC(=O)OCC` (some centres unmarked) [PTCPTE-CFR9] (H-C(X1)FRRRRRRRRR-OH; N-terminus assumed), in data set [2], the “uptake / accumulation” value is reported as “higher intracellular uptake than PTCPTE-TAT”. Further, the “average fluorescence signals (cell loading)” value in data set [2] (after 24 h of loading) is “about 200,000 counts”. The compound also returned a viability at 21 h, 10 µM in data set [4] of 93 to 95%. Also, in data set [5], the “increase in probe lifetime on FCCP stimulation” value came out at 2 us and the “magnitude of respiratory response to FCCP in lifetime units” value is listed as “about 2 microseconds”.

“Pt-tetrakis(pyridinium)porphine tetrachloride”: the “toxicity on cells (in words)” value in data set [6] is “high cyto- and phototoxicity”.

`CC1=C(CCC(=O)O)c2cc3[nH]c(cc4nc(cc5[nH]c(cc1n2)c(CCC(=O)O)c5C)C(CCC(=O)NCCc1ccc(NC(=S)N[C@@H](Cc2ccccc2)C(=O)N[C@@H](CCCNC(=N)N)C(=O)N[C@@H](CCCNC(=N)N)C(=O)N[C@@H](CCCNC(=N)N)C(=O)N[C@@H](CCCNC(=N)N)C(=O)N[C@@H](CCCNC(=N)N)C(=O)N[C@@H](CCCNC(=N)N)C(=O)N[C@@H](CCCNC(=N)N)C(=O)N[C@@H](CCCNC(=N)N)C(=O)N[C@@H](CCCNC(=N)N)C(=O)O)cc1)=C4C)c(CCC(=O)O)c3C` [PtCP-FR9] (X2-[X3]FRRRRRRRRR-OH; C-terminus assumed): the “uptake / accumulation” value in data set [2] is “low uptake”. In data set [3], the “loading of HCT116 cells (in words)” value was “did not load well”. Further, the viability at 21 h, 10 µM in data set [4] was 93 to 95%. For the same compound, in data set [5], the “magnitude of respiratory response to FCCP in lifetime units” value is on record as “about 2 microseconds”.

The record behind these values is US20120289681A1, “CONJUGATES OF CELL-PENETRATING PEPTIDES AND PHOSPHORESCENT METALLOPORPHYRINS FOR INTRACELLULAR OXYGEN MEASUREMENT” (UNIVERSITY COLLEGE CORK, NATIONAL UNIVERSITY OF IRELAND CORK, priority 2009, published 2012).
